Assay results from US9616062B2, “Cyclin dependent kinase inhibitors and methods of use” (priority 2009, dated 2017).

Tests used:
Type in all cases: in vivo, mouse
[1] = tested on: irradiated (6.5 Gy) wild type mice (FVB/n); test: Myelosuppression assay: complete blood counts after sub-lethal irradiation, with or without erythropoietin; conditions: PD0332991 150 mg/kg oral gavage just prior to irradiation, EPO at 72, 96, 120 h post-irradiation, day 17
Description: FIG. 1: CDK4/6 inhibition potentiates the efficacy of erythropoietin-mediated recovery of the erythroid cell lineage following DNA damage. Cohorts (8 mice per cohort) of irradiated (6.5 Gy) wild type mice (FVB/n) are given placebo, erythropoietin (EPO), a CDK4/6 inhibitor (PD0332991), or a combination of CDK4/6 inhibitor and EPO (PD0332991+EPO). Serial blood draws are performed at day 17 after treatment and complete blood counts assessed to determine the number of red blood cells, various leukocytes subpopulations, and platelets. The effect of treatment on platelets is shown in the panel on the upper left, red blood cells (RBC) in the panel on the upper right, hemoglobin (Hb) in the panel on the lower left, and hematocrit (HCT) in the panel on the lower right. Error bars represent +/−SEM. […]
Baseline complete blood cell (CBC) anaylsis was performed on a subset of mice prior to drug administration. […] Blood was analyzed using a Hemavet CBC-Diff Veterinary Hematology System (Drew Scientific Inc., Dallas, Tex., United States of America). […]
Cohorts of FVB wild type mice were given placebo or CDK4/6 inhibitor (PD0332991, 150 mg/kg oral gavage) just prior to receiving a sub-lethal dose of irradiation (6.5 Gcy). […] Complete blood counts (CBCs) were assessed to determine the number of red blood cells, various leukocytes subpopulations and platelets.

[2] = tested on: renal cell proliferation in female FVB wt mice; test: EdU incorporation into whole kidney of cisplatin-treated mice (flow cytometry)
Description: FIG. 6: CDK4/6 inhibition blocks EdU incorporation into whole kidney in mice treated with cisplatin. […] EdU ([…]) was given IP every 24 hours prior to sacrifice. Kidneys were collected and single cell isolates were prepared and stained for EdU incorporation. Proliferation was assessed by flow cytometry. Data represents % of EdU staining in untreated, cisplatin-treated and cisplatin/PD0332991 treated cells.
[…] Proliferation was assessed by using BrdU (1 mg IP injection) every 6 hours for 24 hours prior to sacrifice or […] (0.1 mg IP) every 24 hours for 3 days prior to sacrifice.
Kidneys were harvested from mice and single cells were isolated using a gentleMACS™ tissue dissociator (Miltinyi Biotec, Bergisch Gladbach, Germany). Briefly, kidneys were cut into small pieces and placed in 10 ml collagenase (1 mg/ml) in a gentleMACS™ C tube (Miltinyi Biotec, Bergisch Gladbach, Germany). Tissue was dissociated following the manufacturer's recommendations (Miltinyi Biotec, Bergisch Gladbach, Germany). Cells were then incubated for 5 minutes in ACK buffer to lyse red blood cells, filtered and pelleted. Cells were resuspended in 4% paraformaldehyde and stored overnight at 4° C. For quantification of EdU incorporation, the cells were fixed, permeabilized, and stained with an APC EdU Flow Kit according to the manufacturer's instruction (Invitrogen Corporation, Carlsbad, Calif., United States of America). Flow cytometric analysis was performed using a CyAn ADP (Dako, Glostrup, Denmark). For each sample, a minimum of 500,000 cells was analyzed and the data were analyzed using FlowJo software (Tree Star, Inc., Ashland, Oreg., United States of America).
The kidney is relatively quiescent until challenged by a renal insult. Therefore, to determine whether renal cell proliferation was dependent on CDK4/6 activity in vivo, renal cell proliferation was stimulated by treating female FVB wt mice with cisplatin, a known nephrotoxic chemotherapeutic agent. At time 0 hr, mice were started on chow delivering PD0332991 100 mg/kg per day or standard chow with no drug. […]

[3] = tested on: murine splenic B and T cells; test: Splenic lymphocyte proliferation in mice (Ki67 or BrdU staining); conditions: 24 hours treatment, unstimulated mice
Description: Animals were treated with CDK4/6 inhibitor (PD0332991, open bars) or vehicle (shaded bars) for 24 hours and euthanized. Splenocytes were isolated and stained for B and T cell markers. After gating on appropriate populations, Ki67 staining was performed as an indicator of proliferation and S-phase. Error bars show +/−SEM.
FIG. 22: CDK4/6 inhibitors block B-cell proliferation. Animals were treated with CDK4/6 inhibitor (150 mg/kg by daily oral gavage) or vehicle for 4 days, and BrdU in the drinking water for 3 days. After BrdU treatment, animals were euthanized. Splenocytes were isolated and stained for B cell markers. After gating on appropriate populations, BrdU staining was performed as an indicator of proliferation.
Cohorts of wild type mice were treated with vehicle or a CDK4/6 inhibitor as in FIG. 11. […] Unstimulated mice were treated for 24 hours with PD0332991 and homeostatic B cell proliferation measured by Ki67 staining after appropriate sorting. Similar results were obtained using BrdU incorporation to measure splenic B cell proliferation. Similar experiments were undertaken in human cells with B cell receptor stimulation as described in FIG. 12.

CC(=O)c1c(C)c2cnc(Nc3ccc(N4CCNCC4)cn3)nc2n(C2CCCC2)c1=O [PD0332991, 6-acetyl-8-cyclopentyl-5-methyl-2-(5-piperazin-1-yl-pyridin-2-ylamino)-8H-pyrido-[2,3-d]-pyrimidin-7-one]
platelet counts (CBC) [1]: improved platelet counts | reduction in cell proliferation ([2]; cisplatin and PD0332991 vs cisplatin and vehicle control): 88% | cells labeled with EdU ([2]; kidney single cell suspension, 72 h, cisplatin 15 mg/kg IP, PD0332991 100 mg/kg per day in chow or no drug): approximately 2% | splenocyte B and T cell proliferation (Ki67 staining) [3]: blocks T and B cell proliferation
